Where a name gives a salt, the structure may show the parent alone. One block for each molecule: values may come before it.
Biological target: T1, protein farnesyltransferase (Rattus norvegicus, UniProt Q02293+Q04631)
T1 construct: Rat brain protein farnesyltransferase activity is measured; from tissue; host or cells: rat brain; purified according to Reiss et al., Cell 62:81-88 (1990), steps one through three
Test: in vitro inhibition of protein farnesyltransferase (scintillation proximity assay, biotin-K Ras B fragment)
Assay type: biochemical
Conditions: for inhibition at 10 µM: at 1 × 10^-5 M; for inhibition at 0.1 µM / inhibition at 0.01 µM / inhibition at 1 µM: read-out: % inhibition of farnesyltransferase
How it was run: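 Scintillation proximity read-out of farnesylation, using a biotinylated K Ras B fragment (0.1 mM final) in place of biotin-lamin. Enzyme purified from rat brain; results given as % inhibition.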

Structure (SMILES): CSCC[C@H](NC(=O)c1ccc(CNCCN2CCCCC2)cc1-c1ccccc1)C(=O)O [Example 366]
inhibition at 10 µM: 83%

Structure (SMILES): CSCC[C@H](NC(=O)c1ccc(CN(CCC2CCCCC2)S(C)(=O)=O)cc1-c1ccccc1C)C(=O)O [Example 611, N-[4-(N-(2-cyclohexylethyl)-N-methanesulfonylaminomethyl)-2-(2-methylphenyl)benzol]methionine Lithium Salt]
inhibition at 0.1 µM (at 1 × 10^-7 M): 95%

Structure (SMILES): CCS(=O)(=O)C[C@H](CC1CCCCC1)NCc1ccc(C(=O)N[C@@H](CCSC)C(=O)O)c(-c2ccccc2C)c1 [Example 620, N-[4-(3-cyclohexyl-1-ethylsulfonylpropan-2-ylaminomethyl)-2-(2-methylphenyl)benzoyl]methionine Lithium Salt]
inhibition at 1 µM (at 1 × 10^-6 M): 98%

Structure (SMILES): COc1cccc(-c2ccc(COCc3ccc(C(=O)N[C@@H](CCSC)C(=O)[O-])c(-c4ccccc4C)c3)o2)c1.[Li+] [Example 442]
% inhibition of farnesyltransferase (at 1 × 10^-7 M): 88%

Structure (SMILES): CSCC[C@H](NC(=O)c1ccc(COCc2ccc(-c3ccccc3C(F)(F)F)o2)cc1-c1ccccc1C)C(=O)[O-].[Li+] [Example 438]
% inhibition of farnesyltransferase (at 1 × 10^-7 M): 90%

Structure (SMILES): CSCC[C@H](NC(=O)c1ccc(COCC2CCCCC2)cc1-c1ccccc1C)C(=O)[O-].[Li+] [Example 585]
% inhibition of farnesyltransferase (at 1 × 10^-7 M): 96%

Structure (SMILES): CSCC[C@H](NC(=O)c1ccc(OCCOc2ccccc2)cc1-c1ccccc1C)C(=O)O [Example 561]
% inhibition of farnesyltransferase (at 1 × 10^-6 M): 91%

Structure (SMILES): CSCC[C@H](NC(=O)c1ccc(COCc2oc(-c3ccc(Cl)cc3)c(Cl)c2Cl)cc1-c1ccccc1C)C(=O)[O-].[Li+] [Example 829]
% inhibition of farnesyltransferase (at 1 × 10^-8 M): 92%

Structure (SMILES): CSCC[C@H](NC(=O)c1ccc(COCc2cccc(C(C)C)c2)cc1-c1ccccc1C)C(=O)[O-].[Li+] [Example 939]
% inhibition of farnesyltransferase (at 1 × 10^-8 M): 72%

Structure (SMILES): CSCC[C@H](NC(=O)c1ccc(COCc2ccoc2)cc1-c1ccccc1C)C(=O)O [Example 530]
% inhibition of farnesyltransferase (at 1 × 10^-6 M): 94%

Structure (SMILES): CSCC[C@H](NC(=O)c1ccc(CNCCCN2CCOCC2)cc1-c1ccccc1)C(=O)O [Example 377]
inhibition at 10 µM: 71%

Structure (SMILES): CSCC[C@H](NC(=O)c1ccc(COCc2ccccc2)cc1-c1ccccc1)C(=O)O [Example 575]
% inhibition of farnesyltransferase (at 1 × 10^-6 M): 70%

Structure (SMILES): CSCC[C@H](NC(=O)c1ccc(OC/C=C(\C)CCC=C(C)C)cc1-c1ccccc1C)C(=O)O [Example 546]
% inhibition of farnesyltransferase (at 1 × 10^-6 M): 97%

Structure (SMILES): CSCC[C@H](NC(=O)c1ccc(COCCc2cccc3ccccc23)cc1-c1ccccc1C)C(=O)[O-].[Li+] [Example 592]
% inhibition of farnesyltransferase (at 1 × 10^-7 M): 93%

Structure (SMILES): CSCC[C@H](NC(=O)c1ccc(COCC2CCCO2)cc1-c1ccccc1)C(=O)O (some centres unmarked) [Example 288]
% inhibition of farnesyltransferase (at 1 × 10^-6 M): 22%

Structure (SMILES): CSCC[C@H](NC(=O)c1ccc(COCc2cnc(-c3cccc(Cl)c3)o2)cc1-c1ccccc1C)C(=O)[O-].[Li+] [Example 893]
% inhibition of farnesyltransferase (at 1 × 10^-7 M): 87%

Structure (SMILES): CSCC[C@H](NC(=O)c1ccc(CN(Cc2ccccc2)c2ccccc2)cc1-c1ccccc1C)C(=O)O [Example 406, 4-(N-benzyl-N-phenyl)-aminomethyl-2-(2-methylphenyl)benzoylmethionine]
inhibition at 1 µM (at 1 × 10^-6 M): 95%

Structure (SMILES): CSCC[C@H](NC(=O)c1ccc(COCc2ccccc2C)cc1-c1ccccc1C)C(=O)[O-].[Li+] [Example 577]
% inhibition of farnesyltransferase (at 1 × 10^-6 M): 94%

Structure (SMILES): CSCC[C@H](NC(=O)c1ccc(COCc2ccc(-c3ccc(C(C)C)cc3)o2)cc1-c1ccccc1C)C(=O)[O-].[Li+] [Example 820]
% inhibition of farnesyltransferase (at 1 × 10^-8 M): 66%

Structure (SMILES): CSCC[C@H](NC(=O)c1ccc(COCCc2ccc(Cl)cc2Cl)cc1-c1ccccc1C)C(=O)[O-].[Li+] [Example 591]
% inhibition of farnesyltransferase (at 1 × 10^-8 M): 82%

Structure (SMILES): CCOC[C@H](CC1CCCCC1)OCc1ccc(C(=O)N[C@@H](CCSC)C(=O)O)c(-c2ccccc2C)c1 [Example 525]
% inhibition of farnesyltransferase (at 1 × 10^-6 M): 99%

Structure (SMILES): CSCC[C@H](NC(=O)c1ccc(-c2ccccc2-c2ccccc2)cc1-c1ccccc1C)C(=O)[O-].[Li+] [Example 786]
% inhibition of farnesyltransferase (at 1 × 10^-6 M): 34%

Structure (SMILES): CSCC[C@H](NC(=O)c1ccc(COC(Cc2ccccc2)Cc2ccccc2)cc1-c1ccccc1C)C(=O)[O-].[Li+] [Example 522]
% inhibition of farnesyltransferase (at 1 × 10^-7 M): 93%

Structure (SMILES): CSCCC(NC(=O)c1ccc(NC(=O)c2cncnc2)cc1-c1ccccc1)C(=O)O (centres unmarked) [Example 219, [4-(5-pyrimidylcarboxyamino)-2-phenylbenzoyl]methionine]
inhibition at 1 µM (at 1 × 10^-6 M): 56%

Structure (SMILES): CSCC[C@H](NC(=O)c1ccc(CN(C(C)C)C2(Cc3ccccc3)CCCC2)cc1-c1ccccc1C)C(=O)O [Example 343]
% inhibition of farnesyltransferase (at 1 × 10^-6 M): 72%

Other lines, results leading:

% inhibition of farnesyltransferase (at 1 × 10^-7 M): 78%
Structure (SMILES): CSCC[C@H](NC(=O)c1ccc(COCc2ccc(-c3ccc(Cl)cc3)o2)cc1-c1ccccc1C)C(=O)NS(C)(=O)=O [Example 818]

inhibition at 0.01 µM (at 1 × 10^-8 M): 92%
Structure (SMILES): CCSC[C@H](CCc1ccccc1)NCc1ccc(C(=O)N[C@@H](CCSC)C(=O)O)c(-c2ccccc2C)c1 [Example 995]

% inhibition of farnesyltransferase (at 1 × 10^-8 M): 79%
Structure (SMILES): CSCC[C@H](NC(=O)c1ccc(CO[C@H](CSC)CC2CCCCC2)cc1-c1ccccc1C)C(=O)O [Example 882]

inhibition at 10 µM: 40%
Structure (SMILES): CSCC[C@H](NC(=O)c1ccc(CNCCCCc2ccccc2)cc1-c1ccccc1)C(=O)O [Example 718]

inhibition at 0.01 µM (at 1 × 10^-8 M): 70%
Structure (SMILES): COc1cccc(CN(Cc2ccc(C(=O)N[C@@H](CCSC)C(=O)O)c(-c3ccccc3C)c2)c2ccccc2)c1 [Example 779, N-[4-N-(N-phenyl-N-(3-methoxybenzyl)aniinomethyl)-2-(2-methylphenyl)benzoyl]methionine lithium salt]

% inhibition of farnesyltransferase (at 1 × 10^-7 M): 96%
Structure (SMILES): COc1ncc(COCc2ccc(C(=O)N[C@@H](CCSC)C(=O)O)c(-c3ccccc3C)c2)s1 [Example 896]

inhibition at 10 µM: 76%
Structure (SMILES): CSCC[C@H](NC(=O)c1ccc(CNc2ccc3ncccc3c2)cc1-c1ccccc1)C(=O)O [Example 708]

% inhibition of farnesyltransferase (at 1 × 10^-7 M): 92%
Structure (SMILES): CSCC[C@H](NC(=O)c1ccc(CCc2ccc(Oc3ccccc3N)cc2)cc1-c1ccccc1C)C(=O)O [Example 857]

inhibition at 0.01 µM (at 1 × 10^-8 M): 96%
Structure (SMILES): CCCCS(=O)(=O)N(CCC1CCCCC1)Cc1ccc(C(=O)N[C@@H](CCSC)C(=O)O)c(-c2ccccc2C)c1 [Example 916]

% inhibition of farnesyltransferase (at 1 × 10^-7 M): 84%
Structure (SMILES): CSCC[C@H](NC(=O)c1ccc(CSc2nc3ccccc3[nH]2)cc1-c1ccccc1C)C(=O)O [Example 732]

inhibition at 0.1 µM (at 1 × 10^-7 M): 79%
Structure (SMILES): CCSC[C@H](CC1CCCCC1)N(Cc1ccc(C(=O)N[C@@H](CCSC)C(=O)O)c(-c2ccccc2C)c1)C(C)=O [Example 947, N-[4-N-acetyl-N-(3-Cyclohexyl-1-ethylthiopropan-2-yl)aminomethyl-2-(2-methylphenyl)-benzoyl]methionine]

% inhibition of farnesyltransferase (at 1 × 10^-7 M): 78%
Structure (SMILES): CSCC[C@H](NC(=O)c1ccc(/C=C/c2ccc(Oc3ccccc3Cl)cc2)cc1-c1ccccc1C)C(=O)O [Example 854]

inhibition at 1 µM (at 1 × 10^-6 M): 92%
Structure (SMILES): CSCC[C@H](NC(=O)c1ccc(CN(Cc2ccccc2)c2ccccc2C(C)=O)cc1-c1ccccc1C)C(=O)O [Example 844, N-[4-N-(N-benzyl-N-(2-acetylphenyl)aminomethyl)-2-(2-methylphenyl)benzoyl]methionine lithium salt]

inhibition at 1 µM (at 1 × 10^-6 M): 48%
Structure (SMILES): CSCC[C@H](NC(=O)c1ccc(CNc2ccccc2F)cc1-c1ccccc1)C(=O)O [Example 642]

inhibition at 0.1 µM (at 1 × 10^-7 M): 95%
Structure (SMILES): CSCC[C@H](NC(=O)c1ccc(CN[C@H](CSC(C)(C)C)CC2CCCCC2)cc1-c1ccccc1C)C(=O)O [Example 622, N-[4-(3-cyclohexyl-1-t-butylthiopropan-2-ylaminomethyl)-2-(2-methylphenyl)benzoyl]methionine Lithium Salt]

inhibition at 1 µM (at 1 × 10^-6 M): 42%
Structure (SMILES): CSCC[C@H](NC(=O)c1ccc(CN(C(=O)c2ccccc2)C(CC2CCCCC2)CC2CCCCC2)cc1-c1ccccc1C)C(=O)O [Example 910, N-[4-(N-benzoyl-N-(1,3-Dicyclohexylpropan-2-yl)aminomethyl)-2-(2-methylphenyl)-benzoyl]methionine]

% inhibition of farnesyltransferase (at 1 × 10^-8 M): 69%
Structure (SMILES): CSCC[C@H](NC(=O)c1ccc(CN2CCC[C@H]2COc2ccccc2)cc1-c1ccccc1C)C(=O)O [Example 991]

inhibition at 1 µM (at 1 × 10^-6 M): 87%
Structure (SMILES): CCc1nnc(NCc2ccc(C(=O)N[C@@H](CCSC)C(=O)O)c(-c3ccccc3C)c2)s1 [Example 723]

% inhibition of farnesyltransferase (at 1 × 10^-6 M): 92%
Structure (SMILES): CSCC[C@H](NC(=O)c1ccc(CN2CCC(OCc3ccccc3)C2)cc1-c1ccccc1C)C(=O)O (some centres unmarked) [Example 988]

inhibition at 0.1 µM (at 1 × 10^-7 M): 72%
Structure (SMILES): CSCC[C@H](NC(=O)c1ccc(CNc2ccc(N3CCOCC3)cc2)cc1-c1ccccc1C)C(=O)O [Example 863, N-[4-N-(4-morpholin-1-ylphenyl)aminomethyl-2-(2-methylphenyl)benzoyl]methionine]

inhibition at 10 µM: 48%
Structure (SMILES): CSCC[C@H](NC(=O)c1ccc(CNc2ccccc2N(C)C)cc1-c1ccccc1)C(=O)O [Example 672]

inhibition at 1 µM (at 1 × 10^-6 M): 34%
Structure (SMILES): CSCC[C@H](NC(=O)c1ccc(CNc2ccc(OC(F)(F)F)cc2)cc1-c1ccccc1)C(=O)O [Example 691]

inhibition at 10 µM: 55%
Structure (SMILES): COc1cc2c(cc1OC)C(CNCc1ccc(C(=O)N[C@@H](CCSC)C(=O)O)c(-c3ccccc3)c1)=CC(C1CCCCC1)C2 (some centres unmarked) [Example 659]

% inhibition of farnesyltransferase (at 1 × 10^-7 M): 86%
Structure (SMILES): CSCC[C@H](NC(=O)c1ccc(CCc2ccc(Oc3cccc(Cl)c3)cc2)cc1-c1ccccc1C)C(=O)O [Example 859]

% inhibition of farnesyltransferase (at 1 × 10^-6 M): 95%
Structure (SMILES): CSCC[C@H](NC(=O)c1ccc(CCc2cnc(Oc3ccccc3)cn2)cc1-c1ccccc1C)C(=O)O [Example 813]

inhibition at 1 µM (at 1 × 10^-6 M): 59%
Structure (SMILES): CSCC[C@H](NC(=O)c1ccc(CNc2ccccc2N2CCCCC2)cc1-c1ccccc1)C(=O)O [Example 673]

inhibition at 1 µM (at 1 × 10^-6 M): 92%
Structure (SMILES): CSCC[C@H](NC(=O)c1ccc(CN(Cc2ccco2)C(C)C)cc1-c1ccccc1C)C(=O)O [Example 831, N-[4-N-(furan-2-ylmethyl)-N-isopropylaminomethyl-2-(2-methylphenyl)benzoyl]methionine lithium salt]

inhibition at 1 µM (at 1 × 10^-6 M): 62%
Structure (SMILES): CSCC[C@H](NC(=O)c1ccc(CNCc2ccc(N)cc2)cc1-c1ccccc1)C(=O)O [Example 653]

Source: patent US6310095A, “Inhibitors of protein isoprenyl transferases” (University of Pittsburgh, priority 1998, dated 2001)
